The record followed here is US5821353A, “DNA encoding 1,3 beta-D glucan synthase subunits” (Merck & Co., Inc., priority 1996, dated 1998).

≈ marks a conversion by molar mass, not a printed value.

The test system of experiment [1] is S. cerevisiae YFK798 (fks1-1 + CN). Kind of experiment: primary screen, zone size on agar (calcineurin counter screen). The format is cell-based, Saccharomyces cerevisiae. The note with it: 20 ng FK506, 10 mcg CsA, 10 mcg L733,560, 20 mcg aculeacin, 20 mcg papulacandin, 48 h. As to the method: Counter screening strains were devised for identifying calcineurin inhibitors. Overexpression of yeast calcineurin in the fks1-1 mutant (strain YFK798) constitutes the most general of these. […] Glucan synthase inhibitors show neither effect and thus can be distinguished from calcineurin inhibitors.
(§1) Each strain is grown at 28°-30° C. in YPAD/10 mM CaCl2 medium with shaking at 220 rpm (to mid or late log phase). The cultures are diluted 1:10 with water, and the OD values of the dilutions are measured at 600 nm (against a blank of YPAD/10 mM CaCl2 similarly diluted 1:10 in water). The OD value is multiplied by 10 to estimate the OD of the culture. Portions (100 ml) of YPAD/10 mM CaCl2 medium containing 1.5% agar, equilibrated at 45° C. in a water bath, are seeded with culture such that the final cell density in the agar would have an OD value of 0.015 (i.e., 3×10^6 cfu/ml; a sample calculation is provided below). The seeded agar is poured into 500 cm^2 Nunc plates. Once the agar plates have solidified, 10 mcL aliquots of samples containing test compounds, such as fermentation extracts, are dissolved in water, 100% methanol or ethanol, or up to 50% DMSO and are placed on each member of the two-plate set in 11 by 8 arrays.
(§2) The plates are incubated for 48 h at 28°-30° C. Diameters of the zones are read to the outermost edge and recorded in mm. The clarity of the zone is reported as clear (no designation), hazy (h), or very hazy (vh). Very hazy zones are best seen by viewing the plate under an elevated light placed between the assay dish and a dark wall.

In experiment [2] the test system is S. cerevisiae YFK532-7C (fks1-1) versus YFK007. Kind of experiment: sensitivity of fks1-1 mutant relative to FKS1 wild-type strain. The note with it: calcineurin inhibitors. The format is cell-based, Saccharomyces cerevisiae.
In another experiment the test system is S. cerevisiae R560-1C. The experiment is described as follows: secondary screen, zone size on agar. Format: cell-based, Saccharomyces cerevisiae. The note with it: 20 ng FK506, 10 mcg CsA, 10 mcg L733,560, 20 mcg aculeacin, 20 mcg papulacandin. Here is the method: (§3) For positively identifying glucan synthase inhibitors, screening with strain R560-1C and its parent W303-1A was instituted in a manner identical to that described for calcineurin inhibitors. Complete loss of a zone, or marked reduction in size, on R560-1C versus W303-1A indicates a glucan synthase inhibitor. No zones are seen with calcineurin inhibitors using this pair of strains.
as §1, §2

Another experiment concerns S. cerevisiae W303-1A. The experiment is described as follows: secondary screen, zone size on agar. As to conditions: 20 ng FK506, 10 mcg CsA, 10 mcg L733,560, 20 mcg aculeacin, 20 mcg papulacandin. Format: cell-based, Saccharomyces cerevisiae. Here is the method: as §3, §1, §2
Experiment [3] relates to S. cerevisiae YFK0931-07B. Kind of experiment: MIC assay. Format: cell-based. The note with it: Saccharomyces cerevisiae, YFK093107B, 42 h; YFK0931-07B; read-out: MIC. As to the method: (§4) The sensitivities of pcr1(fks2-1) fks1-1 and pcr1(fks2-1) FKS1 strains to L-733,560, L-636,947 (Aculeacin), and L-687,781 (Dihydropapulocandin) were determined in MIC assays. Briefly, strains were grown to stationary phase in 5.0 ml of liquid YPAD medium. MY2256 precultures were grown in liquid YPAD10Ca. MIC assays were performed in flat well microtiter plates in triplicate. Each well of the microtiter plate was filled with 100 mcL of YPAD medium. To the first well, 100 mcL of a 4× solution of drug in YPAD medium was added. To serve as a control, a stock solution of […] of YPAD was made. 100 mcL of this solution was added to the initial well for strains grown in the presence of solvent but the absence of drug. Two-fold serial dilutions of the drug were performed down the plate.
(§5) Cultures were diluted to 5×10^5 cells/ml in YPAD (1 OD660 =3.3×10^7 cells/ml). 100 mcL of diluted culture was added to each well, resuspended, and incubated at 28° C. After 42 hours, cultures were resuspended and cells densities measured in an SLT Laboratories 340 ATTC microtiter plate reader.

The subject of a further experiment is S. cerevisiae MY2256. The experiment is described as follows: MIC assay. The format is cell-based. As to conditions: Saccharomyces cerevisiae, MY2256, 42 h. Here is the method:
as §4, §5

For experiment [4], the system named is S. cerevisiae haploid strain with the insertion-deletion allele (fks1-5::HIS3 / fks1-6::HIS3). The experiment is described as follows: phenotype of haploid strain with FKS1 insertion-deletion allele. The format is cell-based, Saccharomyces cerevisiae. From the text: An insertion-deletion allele of the fks1-1 complementing DNA was created in the following manner. The 8.8-kb SphI-PstI fragment of pFF133 was inserted between the SphI and PstI sites of the polylinker of the E. coli vector pGEM-5Zf(+) (Promega, Madison, Wis.) giving plasmid pFF174. The 1.3-kb BamHI-XhoI HIS3 fragment from plasmid pJJ215 (J. S. Jones and L. Prakash, Yeast, 6:363-366 (1990)) was inserted by blunt-end ligation (see Current Protocols, p. 3.5.10) between the two KpnI sites of plasmid pFF174 giving plasmids pFF186 (sense orientation) and pFF187 (antisense orientation). The 6.6-kb insertion-deletion fragments were excised by digestion with SstI+SphI and purified by agarose gel electrophoresis. The insertion-deletion mutation was created by one-step gene replacement (see R. Rothstein, GYG, pp. 281-301). This disruption was confirmed by Southern blot hybridization analysis of genomic DNA digested with PstI and probed with the 8.8-kb SphI-PstI fragment from plasmid pFF174. The undisrupted parent gives a single 9.8-kb genomic fragment which hybridizes with the probe. A disruption mutant in which HIS3 is inserted in the sense orientation, for example YFF2409, gives 3.9- and 3.7-kb fragments, while an antisense disruption mutant, for example YFF2411, gives 4.9- and 2.7-kb fragments. […]

The subject of experiment [5] is S. cerevisiae YFK532-7C (fks1-1). Kind of experiment: primary screen, zone size on agar. Format: cell-based, Saccharomyces cerevisiae. As to conditions: 20 ng FK506, 10 mcg CsA, 10 mcg L733,560, 20 mcg aculeacin, 20 mcg papulacandin, 48 h. Here is the method: as §1, §2
Experiment [6] has as its system S. cerevisiae YFK007 (wild type). The experiment is described as follows: primary screen, zone size on agar. The note with it: 20 ng FK506, 10 mcg CsA, 10 mcg L733,560, 20 mcg aculeacin, 20 mcg papulacandin, 48 h. Format: cell-based, Saccharomyces cerevisiae. As to the method:
as §1, §2

The subject of experiment [7] is S. cerevisiae FKS1 pcr1 spores. The experiment is described as follows: drug phenotype of segregants from tetrad analysis. Format: cell-based, Saccharomyces cerevisiae. From the text:
YFK0996-11B (MATa fks1-1 pcr1) was also crossed to YFK0005 (MATalpha FKS1 PCR1). In this cross, the pcr1 and fks1-1 mutations segregate independently. In the 16 four-spore and 20 three-spore tetrads, the segregation pattern of 1 Parental Ditype: 1 Non Parental Ditype : 4 Tetratype tetrads is indicative of two unlinked genes. […] Strains MY2257 (also known as YFK1088-23B, MATa FKS1 +pcr1), MY2258 (also known as YFK1088-16D, MATalpha FKS1+pcr1), and YFK1088-02D (MATa FKS1 +pcr1) were segregants from this cross. As shown in the table below, these segregants contain the pcr1 mutation in a wild-type FKS1 background and lack plasmid pDL1 present in the original mutant.

The subject of experiment [8] is S. cerevisiae MS14 mutant. The experiment is described as follows: disc diffusion drug resistance/sensitivity test. The format is cell-based, Saccharomyces cerevisiae. Here is the method: Cells of the yeast strains MY2144 and MY2145 carrying the respective MS10 and MS14 mutations were grown overnight in YPAD and SC media. From the overnight cultures, cells were diluted 1:10 in the same media and allowed to further grow for 4-6 hrs. The drug resistance/sensitivity tests were conducted by the disc diffusion assay on plates containing 20 ml of solid YPAD or SC media and 3×10^6 cells. The cells were added to premelted media that was cooled to 50° C. before pouring onto plates. Sterile filter discs containing different drugs were placed on the surface of the plates followed by incubation at 28° C. for 1-2 days. Sizes of the zones of growth inhibition were measured as an indication of relative drug resistance/sensitivity. The MS14 mutant is supersensitive to the chitin synthesis inhibitor nikkomycin Z and resistant to the echinocandin L-733-560.

For another experiment, the system named is S. cerevisiae MY2145. The experiment is described as follows: MIC, growth inhibition. The format is cell-based, Saccharomyces cerevisiae. The note with it: Saccharomyces cerevisiae, MY2145, 24 h; read-out: MIC. Here is the method:
(§6) Liquid broth microdilution assay
(§7) To quantitate the sensitivity of a particular strain of S. cerevisiae to a compound such as FK506, L-733,560, or nikkomycin Z, the following procedure was followed:
(§8) Dissolve drug of interest at 4× the desired initial concentration. For L-733,560, a 64 mcg/ml solution in sterile SD is prepared. Aliquot 75 mcL of the drug suspension into column 3. Using a multichannel pipettor, transfer 75 mcL from column 3 into column 4, pipet up and down three times to mix, and then transfer 75 mcL from column 4 into column 5. Repeat the serial dilution until column 12 is reached; after mixing, discard 75 mcL to waste.
(§9) Inoculate each strain in a given row by adding 75 mcL of the inoculum into columns 2 to 12. […] Column 2 serves as the no-drug or 100% growth control. The plate is then incubated overnight at 30° C. without shaking.
(§10) After approximately 24 hours of incubation, gently agitate the plate to resuspend the cells and read the absorbance at 600 nm wavelength. The % control growth for any given well can be calculated by dividing the absorbance value for that well by the value from column 2 in the same row. If this is done for each column, the data can be plotted as "Percent control growth" vs. "Drug concentration". The resulting dose-response curve can be used to compare the drug sensitivities of various strains.
(§11) The data in the following table are the minimum concentration of the various drugs required to inhibit the growth of each the mutants and their parent X2180-1A.

Experiment [9] concerns S. cerevisiae MY2144 (fks 1-3). Kind of experiment: MIC, growth inhibition. The format is cell-based, Saccharomyces cerevisiae. As to conditions: Saccharomyces cerevisiae, 24 h. As to the method: as §6, §7, §8, §9, §10, §11
For the next experiment, the system named is S. cerevisiae X2180-1A. Kind of experiment: MIC, growth inhibition. The format is cell-based, Saccharomyces cerevisiae. As to conditions: Saccharomyces cerevisiae, X21801A, 24 h, minimum concentration required to inhibit growth, read-out: MIC. As to the method:
as §6, §7, §8, §9, §10, §11

Experiment [10] deals with chitin synthase from MY2144 (fks 1-3). Kind of experiment: chitin synthase assay, membrane preparation. The format is biochemical, Saccharomyces cerevisiae. As to conditions: membranes of MY2144 (fks 1-3). Here is the method:
(§12) 125 mcg of the above extracts were trypsin activated and mixed with an equal volume (50 mcL) chitin synthase reaction cocktail, which included 0.5M Tris, pH 7.5, 40 mM MgCl, 320 microM GlcNAc, ^14 C-UDP-GlcNAc substrate mix, and 0.8% digitonin. After 30 minutes of incubation at 30° C., the incorporated ^14 C-[…] was precipitated with 10% trichloroacetic acid, collected onto Whatman glass microfiber GF/A disks and counted.
(§13) Crude enzyme preparations associated with cell membranes were tested for glucan and chitin synthesis activities. The sensitivity of the mutant 1,3-beta-D glucan synthase to L-733,560 and papulacandin was tested along with the sensitivity of the chitin synthases to nikkomycin Z.
(§14) The chitin synthase is not affected in its sensitivity to nikkomycin Z. The data in the following table show the IC50 s for the glucan synthase inhibitors (L-733,560 and papulacandin) and the chitin synthase inhibitor (nikkomycin Z) in 1,3-beta-D glucan synthase and chitin synthase assays, respectively. Equal amounts of membrane proteins were used to prime each reaction.

Experiment [11] deals with chitin synthase from MY2145 (fks 1-4). The experiment is described as follows: chitin synthase assay, membrane preparation. The note with it: membranes of MY2145 (fks 1-4). The format is biochemical, Saccharomyces cerevisiae. As to the method: as §12, §13, §14
The subject of experiment [12] is chitin synthase from X2180-1A. Kind of experiment: chitin synthase assay, membrane preparation. Format: biochemical, Saccharomyces cerevisiae. The note with it: membranes of X2180-1A. Here is the method: as §12, §13, §14

`C=CC[C@@H]1/C=C(\C)C[C@H](C)C[C@H](OC)[C@H]2O[C@@](O)(C(=O)C(=O)N3CCCC[C@H]3C(=O)O[C@H](/C(C)=C/[C@@H]3CC[C@@H](O)[C@H](OC)C3)[C@H](C)[C@@H](O)CC1=O)[C@H](C)C[C@@H]2OC` [FK506]: the results for the “Primary Screen Zone size (mm)” value in [1], in experiment [5] and in experiment [6] were 13 mm, 15-17 mm and “none”, respectively. In addition, the “sensitivity of YFK532-7C relative to YFK007” value in experiment [2] is listed as “at least a thousand fold more sensitive”. The “Secondary Screen Zone size (mm)” value with S. cerevisiae R560-1C and with S. cerevisiae W303-1A was “none” in each case. In addition, the MIC in experiment [3] came to 0.03 µg/mL (≈ 0.0373 µM); against S. cerevisiae MY2256, 0.06 µg/mL (≈ 0.0746 µM). The drug sensitivity phenotype entry in experiment [4] is on record as “hypersensitive”. For the same molecule, the “drug resistance phenotype of spores” value in [7] is given as “resistant”.

In the case of `C[C@@H]([C@H](N)C(=O)N[C@H](C(=O)O)[C@H]1O[C@@H](n2ccc(=O)[nH]c2=O)[C@H](O)[C@@H]1O)[C@H](O)c1ccc(O)cn1` [Nikkomycin Z, nikkomycin Z], the drug resistance/sensitivity phenotype entry in experiment [8] was “supersensitive”. Moreover, the results for the MIC (in the experiment on S. cerevisiae MY2145; in experiment [9]; with S. cerevisiae X2180-1A) were 0.2 µg/mL (≈ 0.404 µM), more than 100 µg/mL and more than 100 µg/mL, respectively. Also, the IC50 in experiment [10] was 0.60 µg/mL (≈ 1.21 µM); in experiment [11], 0.64 µg/mL (≈ 1.29 µM); in experiment [12], 0.74 µg/mL (≈ 1.49 µM).
